ChEMBL document CHEMBL1144961, “Identification of a novel antiangiogenic agent; 4-(N-imidazol-2-ylmethyl)amino benzopyran analogues” (Bioorg Med Chem Lett, 2003)
Calls of active or inactive are those of the source. The rule behind the calls is not given here.

Key:
Homo sapiens [1] = species on record: Homo sapiens; experiment: Inhibitory effect on (HUVEC) human umbilical vein endothelial cell tube formation at a uM; not assayed; type: functional
Homo sapiens [2] = species on record: Homo sapiens; experiment: Inhibitory effect on (HUVEC) human umbilical vein endothelial cell tube formation at a uM; ++ significant inhibition; type: functional
Rattus norvegicus [3] = species on record: Rattus norvegicus; experiment: Vasorelaxant potency was measured by inhibition of […]-contracted rat aorta; type: functional
Rattus norvegicus [4] = species on record: Rattus norvegicus; experiment: In vitro cardioprotective effect was evaluated by measuring the contractile function (LVDRxHR) at a concentration of 10 uM; type: functional, Heart
Rattus norvegicus [5] = species on record: Rattus norvegicus; experiment: In vitro cardioprotective effect was evaluated by measuring the contractile function LDH at a concentration of 10 uM; type: functional, Heart
Rattus norvegicus [6] = species on record: Rattus norvegicus; experiment: In vitro cardioprotective effect was evaluated by measuring the contractile function EDP at a concentration of 10 uM; type: functional, Heart
Rattus norvegicus [7] = experiment: In vivo anti-infarction effect by measuring the ratio of myocardial infarct zone to area at risk (IZ/AAR) in ischemic myocardium damage rat model at 0.3 mg/Kg; type: functional
Rattus norvegicus [8] = species on record: Rattus norvegicus; experiment: In vitro cardioprotective effect was evaluated by measuring the contractile function TTC at a concentration of 10 uM; type: functional, Heart
Mus musculus [9] = experiment: Antitumor efficacy against A549 human non -small cell lung carcinoma was tested in nude mice xenografts at 50 mg/kg on 14th day (i.p.); type: functional; settings: route intraperitoneal
Mus musculus [10] = experiment: Antitumor efficacy against A549 human non -small cell lung carcinoma was tested in nude mice xenografts at 50 mg/kg on 25th day (i.p.); type: functional; settings: route intraperitoneal
Mus musculus [11] = experiment: Antitumor efficacy against A549 human non -small cell lung carcinoma was tested in nude mice xenografts at 50 mg/kg on 35th day (i.p.); type: functional; settings: route intraperitoneal
Mus musculus [12] = experiment: Antitumor efficacy against A549 human non -small cell lung carcinoma was tested in nude mice xenografts at 50 mg/kg on 45th day (i.p.); type: functional; settings: route intraperitoneal
Mus musculus [13] = experiment: Antitumor efficacy against A549 human non -small cell lung carcinoma was tested in nude mice xenografts at 50 mg/kg on 61th day (i.p.); type: functional; settings: route intraperitoneal
Rattus norvegicus [14] = species on record: Rattus norvegicus; experiment: In vitro cardioprotective effect was evaluated by measuring the contractile function LDH at a concentration of 10 uM;not assayed; type: functional; settings: Heart
Rattus norvegicus [15] = experiment: In vivo anti-infarction effect by measuring the ratio of myocardial infarct zone to area at risk (IZ/AAR) in ischemic myocardium damage rat model at 0.3 mg/Kg;not assayed; type: functional, organism-based
Mus musculus [16] = experiment: Antitumor efficacy against A549 human non -small cell lung carcinoma was tested in nude mice xenografts at 50 mg/kg on 1st day (i.p.); type: functional; settings: route intraperitoneal

## COC(OC)[C@]1(C)Oc2ccc(N)cc2[C@H](N(Cc2ncc[nH]2)c2ccc(Cl)cc2)[C@H]1O
Homo sapiens [1]
  inhibition: inactive

## COC(OC)[C@]1(C)Oc2ccc([N+](=O)[O-])cc2[C@@H](N(Cc2ncc[nH]2)c2ccc(Br)cc2)[C@@H]1O
Homo sapiens [1]
  inhibition: inactive

## COC(OC)[C@]1(C)Oc2ccc([N+](=O)[O-])cc2[C@@H](N(Cc2ncc[nH]2)c2ccc(Cl)cc2)[C@@H]1O
Homo sapiens [2]
  inhibition: Significant inhibition

## COc1ccc(N(Cc2ncc[nH]2)[C@H]2c3cc(N)ccc3O[C@](C)(C(OC)OC)[C@@H]2O)cc1
Homo sapiens [1]
  inhibition: inactive

## COC(OC)[C@@]1(C)Oc2ccc(N)cc2[C@@H](N(Cc2ncc[nH]2)c2ccc(Cl)cc2)[C@@H]1O
Homo sapiens [2]
  inhibition: Significant inhibition

## COC(OC)[C@@]1(C)Oc2ccc(N)cc2[C@H](N(Cc2ncc[nH]2)c2ccc(OC(F)(F)F)cc2)[C@H]1O
Homo sapiens [1]
  inhibition: inactive

## COC(OC)[C@]1(C)Oc2ccc([N+](=O)[O-])cc2[C@@H](N(Cc2ncc[nH]2)c2ccc(C(F)(F)F)cc2)[C@@H]1O
Homo sapiens [1]
  inhibition: inactive

## COC(OC)[C@@]1(C)Oc2ccc(N)cc2[C@H](N(Cc2ncc[nH]2)c2ccc(Cl)cc2)[C@H]1O
Homo sapiens [2]
  inhibition: Significant inhibition

## COC(OC)[C@@]1(C)Oc2ccc([N+](=O)[O-])cc2[C@@H](N(Cc2ncc[nH]2)c2ccc(Cl)cc2)[C@@H]1O
Homo sapiens [2]
  inhibition: Significant inhibition
Rattus norvegicus [3]
  IC50: > 30 µM
Rattus norvegicus [4]
  LV DRxHR: 55.7%
Rattus norvegicus [5]
  LDH: 10.7 U g-1
Rattus norvegicus [6]
  EDP: 14 mmHg
Rattus norvegicus [7]
  IZ/AAR / AAR/LV: 41%
Rattus norvegicus [8]
  TTC: 20.3 min

## COC(OC)[C@]1(C)Oc2ccc(N)cc2[C@@H](N(Cc2ncc[nH]2)c2ccc(Cl)cc2)[C@@H]1O
Mus musculus [9]
  Body weight: 25.42 g
Mus musculus [10]; A549, ip
  inhibition in vivo at 50 mg/kg: 39.7%
Mus musculus [10]
  Body weight: 26.17 g
  Tumor volume: 92.2 mm**3
Mus musculus [11]; A549, ip
  inhibition in vivo at 50 mg/kg: 39.5%
Mus musculus [11]
  Body weight: 27.1 g
  Tumor volume: 186.8 mm**3
Mus musculus [12]; A549, ip
  inhibition in vivo at 50 mg/kg: 49.5%
Mus musculus [12]
  Tumor volume: 244.3 mm**3
Mus musculus [13]; A549, ip
  inhibition in vivo at 50 mg/kg: 52.2%
Mus musculus [13]
  Tumor volume: 494.8 mm**3
Rattus norvegicus [3]
  IC50: > 30 µM
Rattus norvegicus [4]
  LV DRxHR: 19.3%
Rattus norvegicus [14]
  LDH: inactive
Rattus norvegicus [6]
  EDP: 62.3 mmHg
Rattus norvegicus [15]
  IZ/AAR / AAR/LV: inactive
Rattus norvegicus [8]
  TTC: 23.5 min
Mus musculus [16]
  Body weight: 22.3 g

## COC(OC)[C@]1(C)Oc2ccc([N+](=O)[O-])cc2[C@@H](N(Cc2ncc[nH]2)c2ccc(OC(F)(F)F)cc2)[C@@H]1O
Homo sapiens [1]
  inhibition: inactive
